≈ marks a conversion by molar mass, not a printed value. Positions of bridges follow the written chain, without caps; N, C: chain ends. Non-standard residues stand in square brackets, D forms with d. Residues, ends and D or L forms follow the SMILES beside them. Groups on a side chain read outwards from the residue. *: point of attachment. Palmitoyl(16-(5-tetrazolyl)) = O=C(CCCCCCCCCCCCCCCc1nnn[nH]1)*; Lys(CH2CO2H)2 = N[C@@H](CCCCN(CC(=O)O)CC(=O)O)C(=O)O; C18 diacid = O=C(O)CCCCCCCCCCCCCCCCC(=O)*; C17 diacid = O=C(O)CCCCCCCCCCCCCCCC(=O)*; NTA = O=C(O)CN(CC(=O)O)CC(=O)*; Orn = NCCC[C@H](N)C(=O)O; Dap = NC[C@H](N)C(=O)O; AEEA = NCCOCCOCC(=O)O
Columns and labels:
[1] = target: human MC4 receptor (Homo sapiens, UniProt P32245); assay: biochemical
Procedure: Assay (V)—Melanocortin Receptor 4 (MC4) Binding Assay
In Vitro ^125NDP-α-MSH Binding to Recombinant BHK Cells Expressing Human MC4 Receptor (Filtration Assay).
The assay was performed in 5 ml minisorb vials (Sarstedt No. 55.526) or in 96-well filter-plates (Millipore MADVN 6550), and using BHK cells expressing the human MC4 receptor using BHK cells stably expressing the human MC4 receptor. The membranes were prepared from frozen or fresh cells that were homogenized in 20 mM HEPES pH 7.1, 5 mM MgCl2 and 1 mg/ml bacitracin and centrifuged at 15000 rpm at 4° C., 10 min in a Sorvall RC 5B plus, SS-34 rotor. The supernatant was discarded, and the pellets were re-suspended in buffer, homogenized and centrifuged two more times. The final pellets were resuspended in the buffer mentioned above, and the protein concentration was measured and adjusted with buffer to 14 to 17 mg/ml and the membrane preparation were kept at −80° C. until assay. The assay was run directly on a dilution of this cell membrane suspension, without any further preparation. The BHK cell membranes are kept at −80° C. until assay, and the assay is run directly on a dilution of this cell membrane suspension, without further preparation. The suspension is diluted to give maximally 10% specific binding, i.e. to approx. 50-100 fold dilution. The assay was performed in a total volume of 200 μl: 50 μl of cell suspension, 50 μl of ^125NDP-α-MSH (≈79 pM in final concentration), 50 μl of test compound and 50 μl binding buffer (pH 7) mixed and incubated for 2 h at 25° C. [binding buffer: 25 mM HEPES, pH 7.0, 1 mM CaCl2, 1 mM MgSO4, 1 mM EGTA, 0.02% Bacitracin, 0.005% Tween™ 20 and 0.1% HSA or, alternatively, 0.1% ovalbumin (Sigma; catalogue No. A-5503)]. Test compounds were dissolved in DMSO and diluted in binding buffer. Radiolabelled ligand and membranes were diluted in binding buffer. The incubation was stopped by dilution with 2×100 μl ice-cold 0.9% NaCl. The radioactivity retained on the filters was counted using a Cobra II auto gamma counter.
The data were analysed by non-linear regression analysis of binding curves, using the Windows™ program GraphPad™ Prism (GraphPad Software, USA).

[2] = physchem
Procedure: From a stock solution in vehicle, either H2O or 10 mM phosphate, containing 1 mg (as weighed) compound per ml, 8-11 aliquots are withdrawn and pH-adjusted individually with HCl/NaOH, to cover the whole pH range.

[3] = target: MC1 receptor (Homo sapiens, UniProt Q01726); assay: biochemical
Summary of the method: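 Radioligand competition on membranes (25 μg/ml) of BHK cells stably expressing MC1, with 22 pM final 125I-NDP-α-MSH in 25 mM HEPES pH 7.4, Ca/Mg, EDTA, 0.1% HSA (or ovalbumin), 0.005% Tween 20. Incubated 90 min at 30 °C, filtered over PEI-treated GF/B; curves fitted by non-linear regression.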

[4] = pH 7.5, Solubility Conc., pH 7.5, vehicle 10 mM phosphate
[5] = pH 7.8, Solubility Conc., pH 7.8, vehicle 10 mM phosphate

Sequence of human MC4 receptor (P32245 whole entry): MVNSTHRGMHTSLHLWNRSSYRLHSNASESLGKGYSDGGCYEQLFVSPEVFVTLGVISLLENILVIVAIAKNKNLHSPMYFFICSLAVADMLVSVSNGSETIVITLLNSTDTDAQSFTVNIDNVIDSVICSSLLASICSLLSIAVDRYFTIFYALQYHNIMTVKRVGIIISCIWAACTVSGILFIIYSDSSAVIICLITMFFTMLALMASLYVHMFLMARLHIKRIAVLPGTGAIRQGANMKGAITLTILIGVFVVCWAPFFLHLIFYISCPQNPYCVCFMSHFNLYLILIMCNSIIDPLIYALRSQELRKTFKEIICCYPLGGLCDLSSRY
Sequence of MC1 receptor (Q01726 whole entry): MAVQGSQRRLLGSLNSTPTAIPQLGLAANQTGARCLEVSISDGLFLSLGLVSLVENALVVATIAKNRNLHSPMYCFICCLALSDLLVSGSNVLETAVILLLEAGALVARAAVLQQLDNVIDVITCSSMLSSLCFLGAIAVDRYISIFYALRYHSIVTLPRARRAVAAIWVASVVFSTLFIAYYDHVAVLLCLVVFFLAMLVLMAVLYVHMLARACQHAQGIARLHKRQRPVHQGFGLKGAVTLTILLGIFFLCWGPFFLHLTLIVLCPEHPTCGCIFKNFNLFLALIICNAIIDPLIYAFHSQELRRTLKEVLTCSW

| Compound | Ki [1] [nM] | solubility [2, 4] [µM] | solubility [2, 5] [µM] | solubility ([2]; pH 7, Solubility Conc.) [µM] | solubility ([2]; pH 7.4, Solubility Conc.) [µM] | solubility ([2]; pH 7.5, Solubility Conc.) [µM] | solubility ([2]; pH 7.6, Solubility Conc.) [µM] | solubility ([2]; pH 7.7, Solubility Conc.) [µM] | solubility ([2]; pH 7.3, Solubility Conc.) [µM] | solubility ([2]; pH 7.8, Solubility Conc.) [µM] | solubility ([2]; pH 8, Solubility Conc.) [µM] | Ki [3] [nM] | also measured |
| --- | --- | --- | --- | --- | --- | --- | --- | --- | --- | --- | --- | --- | --- |
| CC(=O)N[C@H]1CC(=O)NC[C@@H](C(=O)N2CCC[C@H]2C(=O)N2CCC[C@H]2C(=O)N[C@@H](CCCNC(=N)N)C(=O)N[C@@H](CC(=O)O)C(=O)N[C@@H](CCCCNC(=O)CN(CC(=O)O)CC(=O)O)C(=O)N[C@@H](CCCCNC(=O)COCCOCCNC(=O)CCCCCCCCCCCCCCCc2nnn[nH]2)C(N)=O)NC(=O)[C@H](Cc2c[nH]c3ccccc23)NC(=O)[C@H](CCCNC(=N)N)NC(=O)[C@@H](Cc2ccccc2)NC(=O)[C@H](Cc2c[nH]cn2)NC1=O [Example 24, Ac-c[Asp-His-D-Phe-Arg-Trp-Dap]-Pro-Pro-Arg-Asp-Lys(BCMA)-Lys[(2-{2-[16-(tetrazol-5-yl)hexadecanoylamino]ethoxy}ethoxy)acetyl]-NH2] (Ac-DH[dF]RW[Dap]PPRDK(NTA)K([AEEA-Palmitoyl(16-(5-tetrazolyl))])-NH2; lactam 1-6) | 107 |  |  |  |  |  |  |  |  |  |  |  |  |
| CC(=O)N[C@H]1CCCNC(=O)C[C@@H](C(=O)N2CCC[C@H]2C(=O)N[C@@H](CO)C(=O)N[C@@H](CO)C(=O)N[C@@H](CO)C(=O)N[C@@H](CCCCN(CC(=O)O)CC(=O)O)C(=O)N[C@@H](CO)C(=O)N[C@@H](CO)C(=O)N[C@@H](CCCCNC(=O)COCCOCCNC(=O)CCCCCCCCCCCCCCCc2nnn[nH]2)C(N)=O)NC(=O)[C@H](Cc2c[nH]c3ccccc23)NC(=O)[C@H](CCCNC(=N)N)NC(=O)[C@@H](Cc2ccccc2)NC(=O)[C@H](Cc2c[nH]cn2)NC1=O [Example 28, Ac-c[Orn-His-D-Phe-Arg-Trp-Asp]-Pro-Ser-Ser-Ser-Lys(biscarboxymethyl)-Ser-Ser-Lys[(2-{2-[16-(tetrazol-5-yl)hexadecanoylamino]ethoxy}ethoxy)acetyl]-NH2] (Ac-[Orn]H[dF]RWDPSSS[Lys(CH2CO2H)2]SSK([AEEA-Palmitoyl(16-(5-tetrazolyl))])-NH2; lactam 1-6) | 0.9 | 410 (≈ 924 µg/mL) | 433 (≈ 976 µg/mL) |  |  |  |  |  |  |  |  |  | solubility ([2]; pH 4.8, Solubility Conc., pH 4.8, vehicle 10 mM phosphate): 71 µM (≈ 160 µg/mL); solubility ([2]; pH 5.6, Solubility Conc., pH 5.6, vehicle 10 mM phosphate): 40 µM (≈ 90.1 µg/mL); solubility ([2]; pH 6.4, Solubility Conc., pH 6.4, vehicle 10 mM phosphate): 59 µM (≈ 133 µg/mL); solubility ([2]; pH 6.7, Solubility Conc., pH 6.7, vehicle 10 mM phosphate): 126 µM (≈ 284 µg/mL); solubility ([2]; pH 7, Solubility Conc., pH 7.0, vehicle 10 mM phosphate): 382 µM (≈ 861 µg/mL); solubility ([2]; pH 7.2, Solubility Conc., pH 7.2, vehicle 10 mM phosphate): 406 µM (≈ 915 µg/mL); solubility ([2]; pH 8.1, Solubility Conc., pH 8.1, vehicle 10 mM phosphate): 415 µM (≈ 935 µg/mL) |
| CC(=O)N[C@H]1CCC(=O)NCCC[C@@H](C(=O)N2CCC[C@H]2C(=O)N2CCC[C@H]2C(=O)N[C@@H](CCCNC(=N)N)C(=O)N[C@@H](CC(=O)O)C(=O)N[C@@H](CCCCN(CC(=O)O)CC(=O)O)C(=O)N[C@@H](CCCCNC(=O)COCCOCCNC(=O)CCCCCCCCCCCCCCCCC(=O)O)C(N)=O)NC(=O)[C@H](Cc2c[nH]c3ccccc23)NC(=O)[C@H](CCCNC(=N)N)NC(=O)[C@@H](Cc2ccccc2)NC(=O)[C@H](Cc2cnc[nH]2)NC1=O [Example 38, Ac-c[Glu-His-D-Phe-Arg-Trp-Orn]-Pro-Pro-Arg-Asp-Lys(biscarboxymethyl)-Lys({2-[2-(17-carboxyheptadecanoylamino)ethoxy]ethoxy}acetyl)-NH2] (Ac-EH[dF]RW[Orn]PPRD[Lys(CH2CO2H)2]K([AEEA-C18 diacid])-NH2; lactam 1-6) | 0.9 |  |  | 111 (≈ 243 µg/mL) | 218 (≈ 478 µg/mL) | 282 (≈ 618 µg/mL) | 360 (≈ 789 µg/mL) | 422 (≈ 924 µg/mL) |  |  |  |  | solubility ([2]; pH 5.4, Solubility Conc.): 21 µM (≈ 46 µg/mL); solubility ([2]; pH 6.2, Solubility Conc.): 36 µM (≈ 78.9 µg/mL); solubility ([2]; pH 6.5, Solubility Conc.): 58 µM (≈ 127 µg/mL); solubility ([2]; pH 7.9, Solubility Conc.): 430 µM (≈ 942 µg/mL) |
| CC(=O)N[C@H]1CCCNC(=O)C[C@@H](C(=O)N2CCC[C@H]2C(=O)N2CCC[C@H]2C(=O)N[C@@H](CCCNC(=N)N)C(=O)N[C@@H](CCC(=O)O)C(=O)N[C@@H](CCCCN(CC(=O)O)CC(=O)O)C(=O)N[C@@H](CCCCNC(=O)COCCOCCNC(=O)CCCCCCCCCCCCCCCCC(=O)O)C(N)=O)NC(=O)[C@H](Cc2c[nH]c3ccccc23)NC(=O)[C@H](CCCNC(=N)N)NC(=O)[C@@H](Cc2ccccc2)NC(=O)[C@H](Cc2c[nH]cn2)NC1=O [Example 34, Ac-c[Orn-His-D-Phe-Arg-Trp-Asp]-Pro-Pro-Arg-Glu-Lys(biscarboxymethyl)-Lys({2-[2-(17-carboxyheptadecanoylamino)ethoxy]ethoxy}acetyl)-NH2] (Ac-[Orn]H[dF]RWDPPRE[Lys(CH2CO2H)2]K([AEEA-C18 diacid])-NH2; lactam 1-6) | 0.8 |  |  |  | 355 (≈ 778 µg/mL) |  |  |  | 261 (≈ 572 µg/mL) | 420 (≈ 920 µg/mL) | 360 (≈ 789 µg/mL) |  | solubility ([2]; pH 5.5, Solubility Conc.): 27 µM (≈ 59.1 µg/mL); solubility ([2]; pH 6.3, Solubility Conc.): 42 µM (≈ 92 µg/mL); solubility ([2]; pH 6.6, Solubility Conc.): 62 µM (≈ 136 µg/mL); solubility ([2]; pH 6.9, Solubility Conc.): 87 µM (≈ 191 µg/mL); solubility ([2]; pH 7.2, Solubility Conc.): 165 µM (≈ 361 µg/mL) |
| CC(=O)N[C@H]1CC(=O)NC[C@@H](C(=O)N2CCC[C@H]2C(=O)N2CCC[C@H]2C(=O)N[C@@H](CCCNC(=N)N)C(=O)N[C@@H](CC(=O)O)C(=O)N[C@@H](CCCCN(CC(=O)O)CC(=O)O)C(=O)N[C@@H](CCCCNC(=O)COCCOCCNC(=O)CCCCCCCCCCCCCCCc2nnn[nH]2)C(N)=O)NC(=O)[C@H](Cc2c[nH]c3ccccc23)NC(=O)[C@H](CCCNC(=N)N)NC(=O)[C@@H](Cc2ccccc2)NC(=O)[C@H](Cc2c[nH]cn2)NC1=O [Example 41, Ac-c[Asp-His-D-Phe-Arg-Trp-Dap]-Pro-Pro-Arg-Asp-Lys(biscarboxymethyl)-Lys[(2-{2-[16-(tetrazol-5-yl)hexadecanoylamino]ethoxy}ethoxy)acetyl]-NH2] (Ac-DH[dF]RW[Dap]PPRD[Lys(CH2CO2H)2]K([AEEA-Palmitoyl(16-(5-tetrazolyl))])-NH2; lactam 1-6) |  |  |  | 39 (≈ 84.2 µg/mL) | 160 (≈ 345 µg/mL) | 387 (≈ 835 µg/mL) | 497 (≈ 1070 µg/mL) | 478 (≈ 1030 µg/mL) | 87 (≈ 188 µg/mL) | 451 (≈ 973 µg/mL) | 493 (≈ 1060 µg/mL) | > 10000 |  |
| CC(=O)N[C@H]1CCCNC(=O)CC[C@@H](C(=O)N2CCC[C@H]2C(=O)N[C@@H](CO)C(=O)N[C@@H](CO)C(=O)N[C@@H](CO)C(=O)N[C@@H](CCCCN(CC(=O)O)CC(=O)O)C(=O)N[C@@H](CO)C(=O)N[C@@H](CO)C(=O)N[C@@H](CCCCNC(=O)COCCOCCNC(=O)CCCCCCCCCCCCCCCC(=O)O)C(N)=O)NC(=O)[C@H](Cc2c[nH]c3ccccc23)NC(=O)[C@H](CCCNC(=N)N)NC(=O)[C@@H](Cc2ccccc2)NC(=O)[C@H](Cc2c[nH]cn2)NC1=O [Example 57, Ac-c[Orn-His-D-Phe-Arg-Trp-Glu]-Pro-Ser-Ser-Ser-Lys(biscarboxymethyl)-Ser-Ser-Lys({2-[2-(16-carboxyhexadecanoylamino)ethoxy]ethoxy}acetyl)-NH2] (Ac-[Orn]H[dF]RWEPSSS[Lys(CH2CO2H)2]SSK([AEEA-C17 diacid])-NH2; lactam 1-6) |  | 395 (≈ 886 µg/mL) | 524 (≈ 1180 µg/mL) |  |  |  |  |  |  |  |  | > 10000 | solubility ([2]; pH 6.8, Solubility Conc., pH 6.8, vehicle 10 mM phosphate): 47 µM (≈ 105 µg/mL); solubility ([2]; pH 7.1, Solubility Conc., pH 7.1, vehicle 10 mM phosphate): 79 µM (≈ 177 µg/mL); solubility ([2]; pH 7.4, Solubility Conc., pH 7.4, vehicle 10 mM phosphate): 169 µM (≈ 379 µg/mL); Solubility Conc. ([2]; pH 7.5, vehicle 10 mM phosphate): 284 µM (≈ 637 µg/mL); solubility ([2]; pH 7.6, Solubility Conc., pH 7.6, vehicle 10 mM phosphate): 521 µM (≈ 1170 µg/mL); solubility ([2]; pH 7.7, Solubility Conc., pH 7.7, vehicle 10 mM phosphate): 408 µM (≈ 915 µg/mL); solubility ([2]; pH 8, Solubility Conc., pH 8.0, vehicle 10 mM phosphate): 392 µM (≈ 879 µg/mL) |

From US20130012432A1, “Peptides for Treatment of Obesity” (Novo Nordisk A/S, priority 2010, published 2013)
